Results: patent publication US11286256B2, “Bicyclic inhibitors of histone deacetylase” (Alkermes, Inc., priority 2017, dated 2022)

What was measured:
CYP3A4 = target: T1, CYP3A4 (Homo sapiens, UniProt P08684); assay: CYP inhibition assay in human liver microsomes (3A4, midazolam); type: in vitro ADME; conditions: for inhibition at 5 min, 10 µM: probe midazolam, human liver microsomes, midazolam
T1 construct: Human liver microsomes were obtained from BD Gentest; tissue BD Gentest; host or cells: human liver microsomes
Description: Compounds were tested to evaluate their inhibitory potential on CYP2D6 and CYP3A4 (midazolam) using human liver microsomes. Human liver microsomes were obtained from BD Gentest, and each compound was run in duplicate.
The test compounds and reference inhibitors (quinidine for 2D6, ketoconazole for 3A4) were plated in a 96-well plate by transferring 8 μL of 10 mM stock solutions of compound in DMSO to 12 μL of acetonitrile. Individual inhibitor spiking solutions were prepared for CYP2D6 and CYP3A4 (8 μL of DMSO stock added to 12 μL of acetonitrile). Next added 400 μL of 0.2 mg/mL HLM to the assay wells and then added 2 μL of 400× test compound into the designated wells on ice. Next, added 200 μL of 0.2 mg/mL HLM to the assay wells and then added 1 μL of reference inhibitor solutions into the designated wells. The following solutions were added (in duplicate) to a 96-well assay plate on ice: The test compounds and reference inhibitors (quinidine for 2D6, ketoconazole for 3A4) were tested using the following experimental procedure:
10. Incubate the assay plate at 37° C. 5 min for 3A4, 10 min for 2D6.
11. Stop the reaction by adding 120 μL of ACN containing Internal Standard. For CYP3A4, the internal standard is 1′OH-midazolam-D4 (10 μM solution diluted to a final concentration of 0.1 μM by adding 100 μL internal standard stock to 10 mL ACN). For CYP2D6, the internal standard is 1-OH-Bufuralol-maleate-[D9] (49 μM solution diluted to a final concentration of 0.1 μM by adding 20 μL internal standard stock to 10 mL ACN).
The assessment on CYP isoform inhibition is as follows based on the assay results: if percentage of CYP inhibition is higher than 50%, indicates potent inhibition; if percentage of CYP inhibition is between 30-50%, indicates […]; if percentage of CYP inhibition is less than 30%, indicates slight or no inhibition. If the percentage of CYP inhibition is less than −30%, this indicates the compound may have some kind of activation of this isoform.

HDAC2 = HDAC2 (Homo sapiens, UniProt Q92769); assay: HDAC2 enzymatic inhibition assay in SY5Y cell lysate with HDAC-Glo2 substrate; type: cell-based; parameters: host or cells: SH-SY5Y; conditions: SH-SY5Y cells, 5 h compound incubation, HDAC-Glo 2 reagent
Description: HDAC2 Enzymatic Inhibition Assay in SY5Y Cell Lysate with HDAC-Glo2 Substrate
SH-SY5Y cells (Sigma) were cultured in Eagle's Modified Essential Medium supplemented with 10% fetal bovine serum and pen/strep. Twenty-four hours prior to compound dosing 20 uL of cells were plated in white 384 well plates at a density of 1,500 cells/well. Compounds were serially diluted in neat DMSO and then diluted 1:100 v/v into media without FBS and mixed. Media was removed from the plated cells and the diluted compounds in serum free media (1% v/v final DMSO) were added and incubated at 37.0 for five hours. Ten uL of HDAC-Glo 2 reagent with 0.1% Triton X-100 was then added, the plate was mixed and allowed to develop at room temperature for 100 minutes. Plates were then read with a Spectramax LMax luminometer employing a 0.4 s integration time. Dose response curves were constructed with normalized data where CI-994 at 100 uM was defined as 100% inhibition and DMSO alone as 0% inhibition.

[1] = test system: human myeloid progenitors (CFU-GM); assay: Myeloid CFU assay in human bone marrow cells; type: cell-based; conditions: 10 μM, 14 days culture, human bone marrow cells
Description: Compounds were tested to evaluate the potential effects on human erythroid and myeloid progenitors using colony forming cell assays. Clonogenic progenitors of human erythroid (CFU-E, BFU-E), granulocyte-monocyte (CFU-GM) and multipotential (CFU-GEMM) lineages were assessed in a semi-solid methylcellulose-based media formulation containing rhlL-3 (10 ng/mL), rhGM-SCF (10 ng/mL), rhSCF (50 ng/mL) and Epo (3 U/mL).
Normal human bone marrow light density cells derived from normal bone marrow (NorCal Biologics, California) and qualified at ReachBio, were stored in the gaseous phase of liquid nitrogen (−152° C.) until required for the assay. On the day of the experiment, the cells were thawed rapidly, the contents of each vial was diluted in 10 mL of Iscove's modified Dulbecco's medium containing 10% fetal bovine serum (IMDM+10% FBS) and washed by centrifugation (approximately 1200 r.p.m. for 10 minutes, room temperature). The supernatant was discarded and the cell pellets resuspended in a known volume of IMDM+10% FBS. A cell count (3% glacial acetic acid) and viability assessment (trypan blue exclusion test) was performed for the bone marrow sample.
On the day of the experiment, the compounds were dissolved in DMSO to a stock concentration of 10 mM. Serial dilutions were prepared from the stock concentration to achieve concentrations of 2 and 0.4 mM. When added to the methylcellulose-based media at 1:1000 (v/v), the final test concentrations of 10, 2 and 0.4 μM were achieved. Additionally, 5-FU was evaluated at 1.0, 0.1 and 0.01 μg/mL.
Clonogenic progenitors of the human erythroid (CFU-E and BFU-E) and myeloid (CFU-GM) lineages were set up in the methylcellulose-based media formulations described above. All compounds were added to the medium to give the final desired concentrations (10, 2 and 0.4 μM). 5-Fluorouracil (Sigma Aldrich) was used as a positive control for progenitor proliferation (inhibition of colony growth) and was introduced to the human bone marrow cultures at 1.0, 0.1, and 0.01 μg/mL. Solvent control cultures (containing no compound but 0.1% DMSO) as well as standard controls (containing no compound and no DMSO) were also initiated.
Human myeloid and erythroid progenitor assays were initiated at 2.0×10^4 cells per culture. Following 14 days in culture, myeloid and erythroid colonies were assessed microscopically and scored by trained personnel. The colonies were divided into the following categories based on size and morphology: CFU-E, BFU-E, CFU-GM and CFU-GEMM.
The mean±one standard deviation of three replicate cultures was calculated for progenitors of each category (CFU-E, BFU-E, etc.). Two-tailed t-tests were performed to assess if there was a difference in the number of colonies generated between solvent control and treated cultures. Due to the potential subjectivity of colony enumeration, a p value of less than 0.01 is deemed significant. To calculate the concentration of 50% inhibition of colony growth (IC50) for each compound, a dose response curve was generated plotting the log of the compound concentration versus the percentage of control colony growth using XLfit software (IDBS). The concentration of 50% inhibition of colony growth (IC50) was calculated based on the sigmoid curve fit using Dose-Response, One-Site Model formula: y=A+[(B−A)/(1+((C/x)^D))], where A=the initial value (baseline response), B=maximum response, C=center (drug concentration that provokes a response halfway between A and B) and D=slope of the curve at midpoint. Further, plots and additional dose response curves were generated using GraphPad Prism 7.0.
Erythroid (CFU-E and BFU-E), myeloid (CFU-GM) and multi-potential (CFU-GEMM) colony enumeration was performed by trained personnel. The distribution of colony types as well as general colony and cellular morphology was analyzed. For statistical analysis colony numbers in compound treated cultures were compared to the solvent control cultures. […]

HDAC2, sequence (Q92769 whole entry): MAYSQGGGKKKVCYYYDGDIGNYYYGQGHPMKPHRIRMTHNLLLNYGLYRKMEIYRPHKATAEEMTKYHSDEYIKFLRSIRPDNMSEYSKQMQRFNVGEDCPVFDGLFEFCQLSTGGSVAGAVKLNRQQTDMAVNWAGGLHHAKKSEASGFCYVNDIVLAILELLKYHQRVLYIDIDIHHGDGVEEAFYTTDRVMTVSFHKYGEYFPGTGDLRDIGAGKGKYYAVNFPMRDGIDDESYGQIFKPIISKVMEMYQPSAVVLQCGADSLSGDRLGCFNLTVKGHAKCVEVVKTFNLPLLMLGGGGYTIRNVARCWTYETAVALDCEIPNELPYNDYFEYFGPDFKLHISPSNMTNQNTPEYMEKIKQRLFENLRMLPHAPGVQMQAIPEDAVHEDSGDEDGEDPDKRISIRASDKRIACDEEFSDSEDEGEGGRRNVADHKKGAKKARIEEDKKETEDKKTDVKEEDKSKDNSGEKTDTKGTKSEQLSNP
T1 sequence (P08684 whole entry): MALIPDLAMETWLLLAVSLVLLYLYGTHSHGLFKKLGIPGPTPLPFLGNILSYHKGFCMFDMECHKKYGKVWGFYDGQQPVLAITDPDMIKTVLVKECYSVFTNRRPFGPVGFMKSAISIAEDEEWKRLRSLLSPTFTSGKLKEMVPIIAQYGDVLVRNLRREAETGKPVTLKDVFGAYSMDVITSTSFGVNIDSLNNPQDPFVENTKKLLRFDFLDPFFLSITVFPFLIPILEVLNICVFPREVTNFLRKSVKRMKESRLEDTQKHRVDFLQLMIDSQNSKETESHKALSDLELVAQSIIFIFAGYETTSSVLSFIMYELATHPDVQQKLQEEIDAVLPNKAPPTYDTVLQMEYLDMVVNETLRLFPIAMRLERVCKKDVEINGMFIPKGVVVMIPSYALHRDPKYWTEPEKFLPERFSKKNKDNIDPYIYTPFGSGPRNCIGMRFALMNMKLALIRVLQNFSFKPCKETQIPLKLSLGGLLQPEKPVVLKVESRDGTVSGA

SMILES | inhibition at 5 min, 10 µM (CYP3A4) [%] | IC50 (HDAC2) [nM] | CFU % Control remaining @ 10 μM Myeloid [1] [%] | inhibition of CYP3A4 (in words) (CYP3A4; 10 μM)
Nc1ccc(-c2ccc(F)cc2)cc1NC(=O)N1Cc2nccnc2C1 [Comparator A] | -22 | 369 | 0 | –
Nc1ccc(-c2ccc(F)cc2)nc1NC(=O)N1Cc2nccnc2C1 [Comparator B] | 1.5 | 485 | 25 | –
Nc1ccc(-c2cccs2)nc1NC(=O)N1Cc2nccnc2C1 [Comparator C] | 1 | 279 | 20 | –
Nc1ccc(-c2ccc(F)cc2)nc1NC(=O)N1Cc2cncnc2C1 [Comparator D] | 2 | 331 | 84 | –
Nc1ccc(-c2cccs2)nc1NC(=O)N1Cc2cncnc2C1 [Comparator E] | -17 | 278 | 83 | –
COCc1cc2c(cn1)CN(C(=O)Nc1nc(-c3ccc(F)cc3F)ccc1N)C2 [Compound 1] | 27 | 777 | 86 | –
Cc1ncc2c(n1)CN(C(=O)Nc1nc(-c3cccs3)ccc1N)C2 [Compound 2] | 1 | 577 | 59 | no significant inhibition
